Literature values as cited in patent publication US5152997A, “Method and device for transdermally administering testosterone across nonscrotal skin at therapeutically effective levels” (Theratech, Inc., priority 1991, dated 1992).

Experiments:
[1] = e.g., neck, back, chest, arms; for delivery of 5-10 mg/day through a limited area

Compound	systemic availability of testosterone (oral administration)	degradation by the liver (administered orally)	permeability to testosterone of skin areas normally used for transdermal delivery [1]
CCCCCCCCCCC(=O)O[C@H]1CC[C@H]2[C@@H]3CCC4=CC(=O)CC[C@]4(C)[C@H]3CC[C@]12C [testosterone undecanoate]	provides systemically available testosterone	–	–
C[C@]12CC[C@H]3[C@@H](CCC4=CC(=O)CC[C@@]43C)[C@@H]1CC[C@@H]2O [testosterone]	–	rapidly degraded by the liver	too low to permit delivery of the amounts of testosterone needed for therapy
